# Measurements published in patent US20040152648A1, “Pyruvate-kinase as a novel target molecule” (priority 2001, published 2004).
# Where a SMILES comes first, the peptide text is derived from it. [ ]: non-standard residue; d: D form. Nle = CCCC[C@H](N)C(=O)O
# Key:
# Type in all cases: cell-based
# [1] = test system: nuclear PK-M2 processing in Cos-7 cells; test: protease inhibitor pre-treatment, electrophoretic mobility of nuclear PK-M2; details: Cos-7 cells pre-treated with protease inhibitor
# [2] = biological target: T1, pEGFP-PK-M2 (pyruvate-kinase fused to GFP) in Cos-7 cells (Homo sapiens, UniProt P14618); test: nuclear translocation of GFP-fused pyruvate-kinase in transiently transfected Cos-7 cells; details: pEGFP-PK-M2, 1 mM hydrogen peroxide for 4 hours, FIG. 4
# T1 construct: producing wild type pyruvate-kinase N-terminally fused to GFP; expressed in transfected cells; host or cells: Cos-7
# T1 sequence (P14618 whole entry, the tested form may be a part): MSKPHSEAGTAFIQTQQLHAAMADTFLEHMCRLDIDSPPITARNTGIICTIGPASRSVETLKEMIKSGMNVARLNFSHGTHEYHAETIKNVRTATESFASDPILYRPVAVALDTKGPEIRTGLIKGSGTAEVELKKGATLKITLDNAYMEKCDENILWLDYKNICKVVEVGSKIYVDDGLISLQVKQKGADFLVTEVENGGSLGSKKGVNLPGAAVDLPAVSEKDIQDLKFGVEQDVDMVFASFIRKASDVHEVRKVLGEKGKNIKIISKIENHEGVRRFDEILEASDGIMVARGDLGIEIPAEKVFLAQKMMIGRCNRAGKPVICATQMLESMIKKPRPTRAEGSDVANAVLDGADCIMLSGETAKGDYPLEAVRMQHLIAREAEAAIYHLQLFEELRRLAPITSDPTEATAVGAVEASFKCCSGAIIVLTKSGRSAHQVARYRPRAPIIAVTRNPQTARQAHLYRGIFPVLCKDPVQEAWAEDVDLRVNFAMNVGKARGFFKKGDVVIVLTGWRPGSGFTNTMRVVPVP
# From the text: Nuclear translocation of the pyruvate-kinase upon different apoptotic stimuli. Cos-7 cells were transiently transfected with pEGFP-PK-M2 eukaryotic expression plasmid (producing wild type pyruvate-kinase N-terminally fused to GFP)
# Nuclear translocation of the pyruvate-kinase deletion mutants upon apoptotic stimuli. […] (Ex: 485 nm=GFP, Ex: 390=propidium-iodide)
# Cells were fixed with 1% glutaraldehyde and the localisation of GFP was detected and analysed with fluorescent microscope and InoVision confocal imaging software. Nuclei were stained with propidium-iodine (FIG. 5).
# [3] = test system: endogenous PK-M2 in Cos-7 cells; test: subcellular localisation of endogenous PK-M2, cytosolic/nuclear fractions, Western-blot; details: 50 μM TT-232 or 100 μM hydrogen-peroxide, FIG. 8
# Method: Subcellular localisation of endogenous PK-M2 upon peroxide or UV stimulation. Cos-7 cells were untreated, treated with 50 μM TT-232 (A), 100 μM hydrogen-peroxide (B), or 120 mJ/cm^2 UV (C) and incubated for different times as indicated. Cells were separated into cytosolic (c) or nuclear (n) fractions loaded in triplicate and blotted with PK-M2 (uppest panels), Erk-2 (middle panels) or Histone H1 (lowest panels).
# In order investigate further Cos-7 cells were treated, separated into cytosolic and nuclear fractions by NP-40 lysis and analysed with polyclonal PKM2 specific antibody (Weernink et al., 1988) for endogenous PK-M2 by Western-blots. To rule out cross contamination, samples were loaded in triplicate and blotted with PK-M2, Erk-2 or Histone H1 antibodies.
Compound,reversal of increased electrophoretic mobility of nuclear enzyme [1],nuclear translocation of GFP-fused pyruvate-kinase [2],translocation of endogenous PK-M2 into the nucleus [3]
NCCc1ccc(S(=O)(=O)F)cc1 [AEBSF],not able to revert this effect,,
CCCC[C@@H](C=O)NC(=O)[C@H](CC(C)C)NC(=O)[C@H](CC(C)C)NC(C)=O [ALLN] (Ac-Leu-Leu-[Nle]-aldehyde),not able to revert this effect,,
Cc1ccc(S(=O)(=O)N[C@@H](Cc2ccccc2)C(=O)CCl)cc1 [TPCK],not able to revert this effect,,
OO [hydrogen peroxide],,nuclear translocation of the pyruvate-kinase occurs,induced the translocation of the endogenous PK-M2 into the nucleus
